Each structure is given as a SMILES string. Entries after “also recorded” stand apart in the source; their conditions may differ.

Series [1] concerns CaCo-2 (colorectal adenocarcinoma) cells. Put plainly: SRB cell growth inhibition assay, CaCo-2. Conditions: Homo sapiens, Caco-2, 72 h, mean ± standard deviation. Type of series: cell-based, human. The procedure:
(§1) The antitumor potential of the Sonogashira coupling products 2, tricyclic lactones 3 and 5, and tetracyclic lactones 7 was evaluated using the sulforhodamine B (SRB) assay against five human tumor cell lines: colorectal adenocarcinoma (CaCo-2), breast adenocarcinoma (MCF-7), gastric adenocarcinoma (AGS), cervical carcinoma (HeLa), and non-small cell lung cancer (NCI-H460). A primary pig liver cell culture (PLP2) was used to assess the toxicity of compounds.
(§2) The human tumor cell lines used were CaCo-2 (colorectal adenocarcinoma), MCF-7 (breast adenocarcinoma), AGS (gastric adenocarcinoma), HeLa (cervical carcinoma), NCI-H460 (lung carcinoma). Non-tumor cell lines were also tested: PLP2 (primary pig liver culture). All the cell lines were maintained in RPMI-1640 medium supplemented with 10% fetal bovine serum, glutamine (2 mM), penicillin (100 U/mL), and streptomycin ([…]), with the exception of PLP2, which was maintained in DMEM medium supplemented with fetal bovine serum (10%), glutamine and antibiotics. The culture flasks were incubated at 37 °C and with 5% CO2, under a humid atmosphere. The cells were used only when they had 70 to 80% confluence. A known mass of each compound was dissolved in DMSO/H2O (1:1, 1 mL), in order to obtain the stock solutions with a concentration of 1 mM. […] Each compound concentration (10 μL) was incubated with the cell suspension (190 μL) of the cell lines tested in 96-well microplates for 72 h. The microplates were incubated at 37 °C and with 5% CO2 in a humid atmosphere after checking the adherence of the cells. All cell lines were tested at a concentration of 10,000 cells/well. After the incubation period, the cells were treated: TCA (10% w/v; 100 μL) was previously cooled, and plates were incubated for 1 h at 4 °C, washed with water, and, after drying, a SRB solution (0.057%, m/v; 100 μL) was added and left to stand at room temperature for 30 min. To remove non-adhered SRB, plates were washed three times with a solution of acetic acid (1% v/v) and placed to dry. Finally, an adhered SRB was solubilized with Tris (10 mM, 200 μL) and the absorbance at a wavelength of 540 nm was read in the Biotek ELX800 microplate reader. The results obtained by the SRB assay were expressed regarding the concentration compounds that can inhibit cell growth by 50%—GI50. Doxorubicin was used as a positive control.

The subject of series [2] is MCF-7 (breast adenocarcinoma) cells. Kind of series: SRB cell growth inhibition assay, MCF-7. Type of series: cell-based, human. Conditions: Homo sapiens, MCF7, 72 h, mean ± standard deviation. The procedure: as §1, §2
Series [3] relates to AGS (gastric adenocarcinoma) cells. Kind of series: SRB cell growth inhibition assay, AGS. Type of series: cell-based. The conditions noted are these: Homo sapiens, 72 h, mean ± standard deviation. How it is done: as §1, §2
In series [4] the test system is HeLa (cervical carcinoma) cells. Put plainly: SRB cell growth inhibition assay, HeLa. Type of series: cell-based. The conditions noted are these: Homo sapiens, 72 h, mean ± standard deviation. The procedure:
as §1, §2

Series [5] deals with NCI-H460 (non-small cell lung cancer) cells. Kind of series: SRB cell growth inhibition assay, NCI-H460. Type of series: cell-based. Conditions: Homo sapiens, 72 h, mean ± standard deviation. How it is done: as §1, §2
Series [6] is described as follows: SRB assay, toxicity in non-tumor PLP2 cells. Format: cell-based, pig. The conditions noted are these: PLP2 primary pig liver cells (non-tumor); non-tumor primary pig liver cells, SRB assay, 72 h, mean ± standard deviation. How it is done: as §1, §2
(In general: Sulforhodamine B stains cellular protein and so reports cell mass.)

Series [7] deals with T. brucei Lister 427 bloodstream forms. Kind of series: Resazurin-based anti-T. brucei assay. Type of series: cell-based, Trypanosoma brucei. The conditions noted are these: 72 h. How it is done: (§3) The antiparasitic activity of compounds 2c–g, 3a, 5a and 7 was evaluated at a single concentration of 20 μM, against Trypanosoma brucei (T. brucei) and Leishmania infantum (L. infantum) promastigotes. The results are shown in Table 9 together with the cytotoxicity data (CC50) in THP-1–derived macrophages cells.
T. brucei Lister 427 bloodstream forms were grown in a humidified incubator at 37 °C, 5% CO2 in complete HMI-9 medium 1 supplemented with 10% heat-inactivated Fetal Bovine Serum (FBS) and 100 UI/mL penicillin/streptomycin. Parasites maintenance was performed in T25 ventilated flasks by subpassage at a concentration of 1 × 10^4/mL every 2 days on T25 ventilated flasks.
The efficacy of compounds against T. brucei bloodstream forms was evaluated using a modified resazurin-based assay previously described in the literature. Parasites were added to 100 µL of serial dilutions of compounds in supplemented complete medium at a cell density of 5 × 10^3/mL for. As a quality control, a dose–response curve for the antitrypanosomal pentamidine was included in all the assays. The final volume of the assay is 200 µL/well. Each condition was carried out in duplicate. Following 72 h incubation at the specific conditions for T. brucei, 20 µL of a 0.5 mM resazurin solution was added and plates were incubated for a further 4 h under the same conditions. Fluorescence was measured at 544 nm and 590 nm excitation and emission wavelength, respectively, using a Synergy 2 Multi-Mode Reader (Biotek, Winooski, VT, USA). Results were shown as % of parasite growth inhibition compared to control (untreated parasites) and represent the average of at least three independent experiments. The effect was evaluated by the determination of the IC50 value (concentration required to inhibit growth in 50%) and calculated by non-linear regression curves using GraphPad Prism version 8.1.1 for Windows (GraphPad Software, San Diego CA, USA).
(The colour change of resazurin is a common sign of viable cells or microbes.)

The nature of series [8]: MTT cytotoxicity in THP-1-derived macrophages. Format: cell-based, human. The conditions noted are these: human, THP-1-derived macrophages (PMA-differentiated); MTT, 72 h, tested 100 to 12.5 μM; read-out: CC50 Interval in THP-1-Derived Macrophages. How it is done:
(§4) Human leukemia cell line, THP-1 (ATCC® TIB-202™, Manassas, VA, USA) was cultured in RPMI-1640 medium supplemented with 10% heat-inactivated Fetal Bovine Serum (FBS), 2 mM L-glutamine, 100 UI/mL penicillin/streptomycin, 20 mM HEPES. The cell line was maintained in a humidified incubator at 37 °C and 5% CO2 by subculture every three days in 20 mL of media at a concentration of 1 × 10^5/mL in a T75 flask. All cell culture reagents were purchased from Lonza-Bioscience (Morrisville, NC, USA).
(§5) The cytotoxicity effect of compounds on THP-1-derived macrophages was assessed by the colorimetric MTT assay (3-(4,5-dimethylthiazol-2-yl)-2,5-diphenyl tetrazolium bromide). Briefly, THP-1 cells were suspended in RPMI complete medium at a density of 1 × 10^6 cells/mL and 100 μL/well were seeded in a 96-well plate and were differentiated into macrophages by addition of 40 ng/mL of phorbol-myristate 13-acetate (PMA, Sigma, Saint Louis, MI, USA) for 24 h followed by replacement with fresh medium for more 24 h. Subsequently, cells were incubated with 100 μL of compounds ranging from 100 to 12.5 μM after dilution in the RPMI complete medium. Each condition was carried out in quadruplicate. After 72 h of incubation at 37 °C 5% CO2, the medium was removed and 200 μL of 0.5 mg/mL MTT solution diluted in RPMI was added. Plates were incubated for an additional 4 h. Then 160 μL of media was removed and the same volume of 2-propanol was added. Absorbance was read at 570 nm using a Synergy 2 Multi-Mode Reader (Biotek, Winooski, VT, USA). Cytotoxicity was evaluated by the determination of the CC50 value (drug concentration that reduced the percentage of viable cells in 50%) and calculated by non-linear regression analysis using GraphPad Prism version 8.1.1 for Windows (GraphPad Software, San Diego, CA, USA). The results represent the average of at least three independent experiments. For each compound, the Selectivity Index (SI) was calculated as the ratio between cytotoxicity in THP-1 (CC50, 72 h) and activity against parasites (IC50, 72 h).

Series [9] relates to THP-1-derived macrophages. Put plainly: MTT cytotoxicity in THP-1-derived macrophages. Format: cell-based, human. The procedure:
as §4, §5

For series [10], the system named is L. infantum MHOM/MA/67/ITMAP-263 promastigotes. Put plainly: Resazurin-based assay against L. infantum promastigotes. The conditions noted are these: single dose 20 μM, 72 h, no activity = less than 20%. Format: cell-based, Leishmania infantum. The procedure: as §3
L. infantum MHOM/MA/67/ITMAP-263 promastigotes forms were grown at 27 °C, in complete RPMI-1640 medium supplemented with 10% heat-inactivated Fetal Bovine Serum (FBS), 2 mM L-glutamine, 100 UI/mL penicillin/streptomycin, 20 mM HEPES. Parasites maintenance was performed in T25 non-ventilated flasks by subpassage at a concentration of 1 × 10^6/mL every 5 days on T25 non-ventilated flasks.
The compounds’ efficacy against L. infantum promastigotes was evaluated using a resazurin-based assay. Parasites were added to 100 µL of serial dilutions of compounds in supplemented complete medium at a cell density of 5 × 10^5/mL. As a quality control, a dose–response curve to the antileishmanial drug miltefosine was included in all the assays. The final volume of the assay was 200 µL/well. Each condition was carried out in duplicate. Following 72 h of incubation at the specific conditions for L. infantum, 20 µL of a 0.5 mM resazurin solution was added, and the plates were incubated for a further 4 h under the same conditions. The methodology to obtain the results was the same described in Section 3.2.2. for T. brucei.

For `O=c1oc(-c2ccccc2)c(Cl)c2c1sc1nccnc12` [Compound 5a, 9-Chloro-8-phenyl-6H-pyrano[4′,3′:4,5]thieno[2,3-b]pyrazin-6-one], the GI50 (commonly the concentration giving 50% growth inhibition) in [1] was 41.7 ± 1.02 µM; in [2] it was 52.6 ± 3.18 µM; in series [3] it was 36.3 ± 1.47 µM; in series [4] it was 35.8 ± 2.08 µM; in series [5] it was 51.5 ± 4.18 µM. In series [6], this compound returned a GI50 at 72 h of 66.8 ± 3.58 µM. Besides, the IC50 (in general, the concentration needed to halve the response being measured) in series [7] (dose-response) was 10.8 µM; in series [7] (Trypanosoma brucei, dose-response) it was under 11 µM. In series [7] (dose-response), the “T. brucei IC50” value is given as “low μM range”. Further, in series [8], the CC50 (usually the concentration that lowers cell viability or growth by half) at 72 h fell in the range of 50 to 100 µM. In [9], the “cytotoxicity in THP-1-derived macrophages (in words)” value is “some level of toxicity; also recorded: some degree of cytotoxicity”.

As to `COC(=O)c1sc2nccnc2c1C#Cc1ccsc1` [Compound 2g, Methyl 7-(thiophen-3-ylethynyl)thieno[2,3-b]pyrazine-6-carboxylate], the GI50 in [1] was 30.7 ± 2.35 µM; in [2], 60 ± 3.19 µM; in [3], 46.1 ± 1.77 µM; in [4] it was 36.4 ± 2.85 µM; in [5], 62.1 ± 3.05 µM. Besides, the GI50 at 72 h in series [6] worked out at 90.5 ± 6.47 µM. Moreover, the “T. brucei % of Activity ± ST.DEV (Single Dose 20 μM)” value in series [7] (single dose 20 μM, no activity = less than 20%) was “no activity *”. Besides, the “L. infantum % of Activity ± ST.DEV (Single Dose 20 μM)” value in series [10] is “no activity *”. Besides, the CC50 at 72 h in series [8] was over 100 µM.
